Legend:
[1] = tested on: peripheral nerve tissue; test: Picogreen DNA assay, total DNA content of apoptosis-decellularized peripheral nerve; design: species or system Sprague Dawley rats
Procedure: Peripheral nerves were harvested from Sprague Dawley rats and decellularized according to an apoptosis-assisted protocol using 5 μM camptothecin in non-supplemented media at 37° C. for 1 day. Tissue in media without camptothecin, an apoptotic agent, was used as a control. Apoptotic agent treatment was succeeded by washes in saline buffered solutions to optimize cell removal. Furthermore, the tissue was treated with 75 u/mL DNAse for 24 hours to ensure DNA removal. The degree of apoptosis, cellular removal, and matrix preservation was assessed using immunochemistry on nerve tissue sections and fluorescence imaging (FIG. 2). Antibodies used to identify apoptosis, cell removal, and tissue preservation include those against active caspase 3 (Abcam); neurofilament (RT-97, DSHB) and 5100 (Dako); and laminin (Sigma), respectively. […] FIGS. 2B and 2C show nerves treated with 5 μM for 1 day, washed with a hypertonic, and either washed with a […] or treated for 24 hours with DNAse, respectively. […] FIGS. 2E and 2F show treatment with higher camptothecin (10 μM), again for 1 day, and washed similarly to tissue in FIGS. 2B and 2C. These images depict 1) apoptosis induction is necessary prior to washing to effectively remove cellular components and 2) combing apoptosis induction with washes in non-isotonic solutions achieves cellular removal of peripheral nerve tissue. Total DNA content was quantified using a Picogreen DNA assay (Life Technologies) according to manufacturer's instructions.

[2] = tested on: peripheral nerve tissue; test: Induction of apoptosis ex vivo (active caspase 3 immunochemistry, TUNEL); design: species or system Sprague Dawley rats; conditions: 10 μM camptothecin, 37° C., 2 days
Procedure: Peripheral nerves were harvested from Sprague Dawley rats and decellularized according to an apoptosis-assisted protocol using 10 μM camptothecin in non-supplemented media at 37° C. for 2 days. Tissue in media without camptothecin was used as a control. Apoptotic agent treatment was succeeded by washes in saline buffered solutions to optimize cell removal. The degree of apoptosis, cellular removal, and matrix preservation was assessed using immunochemistry on nerve tissue sections and fluorescence imaging. Antibodies used to identify apoptosis, cell removal, and tissue preservation include those against active caspase 3 (Abcam); neurofilament (RT-97, DSHB) and 5100 (Dako); and laminin (Sigma), respectively, Apoptosis-mediated DNA fragmentation was assessed using a terminal deoxynucleotidyl transferase dUTP nick end labeling (TUNEL) assay. Total DNA content was quantified using a Picogreen DNA assay (Life Technologies) according to manufacturer's instructions. […] For FIGS. 5A and 5B, the images are fresh nerve (top half) and apoptosis decellularized nerve (bottom half). FIG. 5A was labeled for neurons (neurofilament, green), Schwann cells (S100, red), and nuclei (DAPI, blue). […] Induction of apoptosis was confirmed in treated nerve tissue by an increase in active caspase 3, an early mediator of apoptosis. […]

[3] = tested on: rat sciatic nerve; test: QuantiFluor dsDNA assay, residual DNA content in tissue; conditions: apoptosis decellularization, QuantiFluor dsDNA kit
Text: (§1) Briefly, the injectable tissue hydrogels of this Example were generated by digesting rat sciatic nerves that had been decellularized by inducing cell […] (or apoptosis). Apoptosis can cause cells to form small apoptotic bodies containing cellular components, which can be more easily removed from the matrix. This approach has the potential to enhance matrix preservation and bioactivity, thus having a major impact on tissue engineering. In this Example, rat sciatic nerves were first harvested and decellularized by inducing apoptosis (described elsewhere herein and e,g. FIG. 11). Washing in camptothecin can induce apoptosis. Hypertonic washing (e,g. 4× PBS) can aid in cell removal. DNase treatment can degrade residual DNA content. Treatment with Chondroitinase ABC can be used to remove inhibitory proteoglycans. After the decellularization process, the resulting decellularized tissue can undergo enzymatic processing and further processing to balance pH where necessary. In some cases the decellularized tissue can be lyophilized prior to enzymatic digestion. In this particular example, pepsin was used to digest tissue at an acidic pH. After about […] of enzymatic digestion, the solution can be neutralized and isotonically balanced. The solution was further diluted with PBS. In some embodiments, the solution was diluted to 1/9 th of its volume in 10× PBS. […]

[4] = tested on: rat sciatic nerve; test: TUNEL assay, preliminary studies; conditions: samples treated with camptothecin
Text: as §1

In the case of CC[C@@]1(O)C(=O)OCc2c1cc1n(c2=O)Cc2cc3ccccc3nc2-1 [camptothecin], the “reduction in DNA compared to fresh nerve” value ([1]; 5 μM camptothecin 1 day, hypertonic then hypotonic wash) is reported as 71.9%, the “reduction in DNA compared to fresh nerve” value ([1]; 5 μM camptothecin 1 day, hypotonic wash replaced with DNAse treatment) is reported as 95.1% and the “reduction in DNA compared to fresh nerve” value ([1]; 10 μM camptothecin 1 day, hypertonic then hypotonic wash) is reported as 57.3%. For the same molecule, the “reduction in DNA compared to fresh nerve” value ([1]; 10 μM camptothecin 1 day, hypotonic wash replaced with DNAse treatment) was 95.8%, the “apoptosis ex vivo (caspase 3 activation and DNA fragmentation)” value [2] was “sufficient to elicit aspects of apoptosis ex vivo” and the DNA removal [3] was “greater than 90%”. The “apoptosis by TUNEL assay” value [4] was “enhanced apoptosis”.

Reference: patent publication US20210046125A1, “DECELLULARIZED TISSUES, HYDROGELS THEREOF, AND USES THEREOF” (UNIVERSITY OF FLORIDA RESEARCH FOUNDATION, priority 2018, published 2021)
